{"source": "patent US20260191838A1", "about": "“COMBINATIONS COMPRISING A MENIN-MLL INHIBITOR AND A BCL-2 INHIBITOR” (JANSSEN PHARMACEUTICA NV, priority 2022, published 2026)", "key": {"[1]": {"system": "MV4-11 cells", "assay": "In vitro proliferation (Cell Titer Glo), Compound 51 with decitabine and venetoclax, MV4-11", "type": "cell-based, human", "parameters": "key to Synergy/antagonism call (maxR test): no asterisk: absence of any asterisk indicates an additive effect; antagonism is indicated by “*”; synergy is indicated by “**”; Effect size (BIGL, HSA null model): scale not given here", "method": "3a) In Vitro Proliferation—Menin-MLL Inhibitor in Combination with a DNA Hypomethylating Agent (Decitabine) and a BCL2 Inhibitor (Venetoclax)\nThe effect of Compound 51 in combination with decitabine and venetoclax was determined in proliferation assays.\nAML cell lines MOLM-13, OCI-AML3 and MV4-11 were purchased from DSMZ. MOLM-13 were grown in RPMI medium supplemented with 10% Fetal Bovine Serum (FBS) and 1% penicillin/streptomycin. MV4-11 cells were grown in IMDM medium supplemented with 10% FBS and 1% penicillin/streptomycin. OCI-AML3 cells were cultured in 80-90% alpha-MEM (without ribo- and deoxyribonucleosides)+10-20% FBS. All cell lines were cultured at 37° C. in 5% CO2 atmosphere.\nAML cell lines (10×10^3 cells/well) were seeded in 96-well plates and grown for 6 days in serum (10%)-containing medium in the presence or absence of inhibitors at the indicated concentrations. Proliferation was analyzed by means of a Cell Titer Glo assay using the CellTiter 96 Aqueous One Solution Cell Proliferation Assay (Promega, Madison, WI, USA), according to the manufacturer's instructions. Data are mean with standard deviation from two to four independent experiments in technical triplicates.\nR-based Biochemically Intuitive Generalized Loewe (BIGL) model implemented with a highest single agent (HSA) null model. Specifically, the BIGL methodology was applied to calculate drug-drug interactions (Van der Borght, K., Tourny, A., Bagdziunas, R. et al. BIGL: Biochemically Intuitive Generalized Loewe null model for prediction of the expected combined effect compatible with partial agonism and antagonism. Sci Rep 7, 17935 (2017); Thas, O., Tourny, A., Verbist, B., Hawinkel, S., Nazarov, M., Mutambanengwe, K., & Bijnens, L. Statistical detection of synergy: new methods and a comparative study. Pharmaceutical Statistics (2021)).\nSynergy matrix results of the BIGL analysis of the cell line data with HSA as mean model calculated on the basis of the cellular metabolic activity using Cell Titer-Glo assay. Bootstrap confidence intervals are indicated. Effect sizes and their confidence intervals are shown. […] No significant average effect if zero is included in the interval."}, "[2]": {"system": "MOLM-13 tumors in NSG mice", "assay": "Efficacy (survival) in disseminated MOLM-13 (KMT2A-rearranged) IV model in NSG mice", "type": "in vivo", "method": "4) Efficacy of Menin-KMT2A Inhibitor in Combination with Venetoclax, and Optionally, Azacitidine, in MOLM-13 (KMT2A-Rearranged) IV Model in NSG Mice\nCompound 51 was formulated in purified pyrogen-free deionized water, pH 4.0 and prepared to reach a total volume of 8 mL/kg. Doses were adjusted by individual body weight each day. Working stocks of Compound 51 were prepared once per week for each study and stored at 25° C.\nFemale NSG (NOD.Cg-Prkdc^scid Il2rg^tm1Wj1/SzJ) mice were used when they were approximately 6 to 8 weeks of age and weighed approximately 25 g. All animals could acclimate and recover from any shipping-related stress for a minimum of 7 days prior to experimental use. Autoclaved water and irradiated food were provided ad libitum, and the animals were maintained on a 12 hour light and dark cycle. Cages, bedding, and water bottles were autoclaved before use and changed weekly. The tissue culture and cell injection reagents are summarized below in Table 5.\nTumor Model and Cell Culture Method\nHuman AML MOLM-13 cells were cultured at 37° C., 5% CO2 in the indicated complete culture media (RPMI 1640+10% HI-FBS+2 mM L-glutamine+50 μg/ml Gentamycin). Cells were harvested while in logarithmic growth and resuspended in cold (4° C.) Roswell Park Memorial Institute (RPMI) 1640 in serum-free medium.\nFor the disseminated MOLM-13 model, each mouse received 1×10^5 cells via IV injection in a total volume of 0.2 mL using a 26-gauge needle.\nDay 0 is the day of tumor cell implantation and study initiation.\nMice bearing IV MOLM-13 xenograft tumors were randomly assigned to treatment groups 5 days post-tumor cell engraftment.\nAnimals were monitored daily for clinical signs related to either compound toxicity or tumor burden (i.e., hind limb paralysis, lethargy, etc.).\nFor survival assessment, results were plotted as the percentage survival against days post tumor implant. Negative clinical signs and/or ≥20% body weight loss was used as a surrogate endpoint for death. Median survival was determined utilizing Kaplan-Meier survival analysis. The percent increased life span (ILS) was calculated as: ((median survival day of treated group−median survival day of control group)/median survival day of control group)×100. Animals failing to reach the surrogate endpoint due to adverse clinical signs or death unrelated to treatment were censored for the survival assessment. As defined by NCI criteria, ≅25% ILS is considered biologically significant. (Johnson J I et al. Br J Cancer. 2001. 84(10), 1424-1431).\nSurvival and body weight data were graphically represented utilizing Prism (Version 9). Statistical significance for body weights was evaluated as described above. Statistical significance was evaluated for Kaplan-Meier survival plots comparing therapeutic treatment group vs. appropriate vehicle-treated control using log-rank (Mantel-Cox) test in R software version 3.4.2. Differences between groups were considered significant when the p value was ≤0.05.\nThe disseminated MOLM-13 model described above was used to examine the efficacy of menin-KMT2A-inhibitor (formulated as described above) in combination with venetoclax (formulated in polyethylene glycol [PEG]-400/Phosal50/dimethyl sulfoxide [DMSO]), and optionally azacitidine (formulated in 0.9% saline). Treatment with compound(s) was initiated 5 days after cell injection. Compound 51 was given in the morning, and venetoclax or azacitidine was given in the afternoon, approximately 6-8 hr apart."}, "[3]": {"conditions": "Compound 51 0.01 μM, Decitabine 0.015 μM, Venetoclax 0.001 μM"}, "[4]": {"conditions": "Compound 51 0.01 μM, Decitabine 0.15 μM, Venetoclax 0.002 μM"}, "[5]": {"conditions": "Compound 51 0.01 μM, Decitabine 1.5 μM, Venetoclax 0.02 μM"}, "[6]": {"conditions": "Compound 51 0.05 μM, Decitabine 0.015 μM, Venetoclax 0.001 μM"}, "[7]": {"conditions": "Compound 51 0.05 μM, Decitabine 0.15 μM, Venetoclax 0.002 μM"}, "[8]": {"conditions": "Compound 51 0.05 μM, Decitabine 1.5 μM, Venetoclax 0.02 μM"}, "[9]": {"conditions": "Compound 51 0.1 μM, Decitabine 0.15 μM, Venetoclax 0.002 μM"}, "[10]": {"conditions": "Compound 51 0.1 μM, Decitabine 1.5 μM, Venetoclax 0.02 μM"}}, "data": [{"compound": "CC(=O)N1CCC(CN2CC[C@@H](Cc3cn(-c4ccc(F)cc4C(=O)N(C)C(C)C)c4cncc(C)c34)C2)CC1", "note": "[Compound 51]", "values": [{"measurement": "Effect size (BIGL, HSA null model)", "setting": "[1]; Compound 51 0.001 μM, Decitabine 0.0015 μM, Venetoclax 0.0001 μM", "value": "−0.02"}, {"measurement": "Effect size (BIGL, HSA null model)", "setting": "[1]; Compound 51 0.001 μM, Decitabine 0.015 μM, Venetoclax 0.001 μM", "value": "−0.05"}, {"measurement": "Effect size (BIGL, HSA null model)", "setting": "[1]; Compound 51 0.001 μM, Decitabine 0.15 μM, Venetoclax 0.002 μM", "value": "−0.01"}, {"measurement": "Effect size (BIGL, HSA null model)", "setting": "[1]; Compound 51 0.001 μM, Decitabine 1.5 μM, Venetoclax 0.02 μM", "value": "−0.08"}, {"measurement": "Effect size (BIGL, HSA null model)", "setting": "[1]; Compound 51 0.001 μM, Decitabine 3 μM, Venetoclax 0.2 μM", "value": "−0.06"}, {"measurement": "Effect size (BIGL, HSA null model)", "setting": "[1]; Compound 51 0.01 μM, Decitabine 0.0015 μM, Venetoclax 0.0001 μM", "value": "−0.02"}, {"measurement": "Effect size (BIGL, HSA null model)", "setting": "[1]; [3]", "value": 0.22}, {"measurement": "Synergy/antagonism call (maxR test)", "setting": "[1]; [3]", "value": "**"}, {"measurement": "Effect size (BIGL, HSA null model)", "setting": "[1]; [4]", "value": "−0.26"}, {"measurement": "Synergy/antagonism call (maxR test)", "setting": "[1]; [4]", "value": "**"}, {"measurement": "Effect size (BIGL, HSA null model)", "setting": "[1]; [5]", "value": "−0.1"}, {"measurement": "Synergy/antagonism call (maxR test)", "setting": "[1]; [5]", "value": "**"}, {"measurement": "Effect size (BIGL, HSA null model)", "setting": "[1]; Compound 51 0.01 μM, Decitabine 3 μM, Venetoclax 0.2 μM", "value": "−0.06"}, {"measurement": "Effect size (BIGL, HSA null model)", "setting": "[1]; Compound 51 0.05 μM, Decitabine 0.0015 μM, Venetoclax 0.0001 μM", "value": 0}, {"measurement": "Effect size (BIGL, HSA null model)", "setting": "[1]; [6]", "value": "−0.17"}, {"measurement": "Synergy/antagonism call (maxR test)", "setting": "[1]; [6]", "value": "**"}, {"measurement": "Effect size (BIGL, HSA null model)", "setting": "[1]; [7]", "value": "−0.24"}, {"measurement": "Synergy/antagonism call (maxR test)", "setting": "[1]; [7]", "value": "**"}, {"measurement": "Effect size (BIGL, HSA null model)", "setting": "[1]; [8]", "value": "−0.1"}, {"measurement": "Synergy/antagonism call (maxR test)", "setting": "[1]; [8]", "value": "**"}, {"measurement": "Effect size (BIGL, HSA null model)", "setting": "[1]; Compound 51 0.05 μM, Decitabine 3 μM, Venetoclax 0.2 μM", "value": "−0.06"}, {"measurement": "Effect size (BIGL, HSA null model)", "setting": "[1]; Compound 51 0.1 μM, Decitabine 0.0015 μM, Venetoclax 0.0001 μM", "value": 0.03}, {"measurement": "Effect size (BIGL, HSA null model)", "setting": "[1]; Compound 51 0.1 μM, Decitabine 0.015 μM, Venetoclax 0.001 μM", "value": "−0.06"}, {"measurement": "Effect size (BIGL, HSA null model)", "setting": "[1]; [9]", "value": "−0.09"}, {"measurement": "Synergy/antagonism call (maxR test)", "setting": "[1]; [9]", "value": "**"}, {"measurement": "Effect size (BIGL, HSA null model)", "setting": "[1]; [10]", "value": "−0.3"}, {"measurement": "Synergy/antagonism call (maxR test)", "setting": "[1]; [10]", "value": "**"}, {"measurement": "Effect size (BIGL, HSA null model)", "setting": "[1]; Compound 51 0.1 μM, Decitabine 3 μM, Venetoclax 0.2 μM", "value": "−0.06"}, {"measurement": "Effect size (BIGL, HSA null model)", "setting": "[1]; Compound 51 0.5 μM, Decitabine 0.0015 μM, Venetoclax 0.0001 μM", "value": 0}, {"measurement": "Effect size (BIGL, HSA null model)", "setting": "[1]; Compound 51 0.5 μM, Decitabine 0.015 μM, Venetoclax 0.001 μM", "value": "−0.02"}, {"measurement": "Effect size (BIGL, HSA null model)", "setting": "[1]; Compound 51 0.5 μM, Decitabine 0.15 μM, Venetoclax 0.002 μM", "value": "−0.02"}, {"measurement": "Effect size (BIGL, HSA null model)", "setting": "[1]; Compound 51 0.5 μM, Decitabine 1.5 μM, Venetoclax 0.02 μM", "value": "−0.03"}, {"measurement": "Effect size (BIGL, HSA null model)", "setting": "[1]; Compound 51 0.5 μM, Decitabine 3 μM, Venetoclax 0.2 μM", "value": "−0.03"}, {"measurement": "Effect size (BIGL, HSA null model)", "setting": "[1]; Compound 51 1 μM, Decitabine 0.0015 μM, Venetoclax 0.0001 μM", "value": "−0.03"}, {"measurement": "Effect size (BIGL, HSA null model)", "setting": "[1]; Compound 51 1 μM, Decitabine 0.015 μM, Venetoclax 0.001 μM", "value": "−0.02"}, {"measurement": "Effect size (BIGL, HSA null model)", "setting": "[1]; Compound 51 1 μM, Decitabine 0.15 μM, Venetoclax 0.002 μM", "value": "−0.02"}, {"measurement": "Effect size (BIGL, HSA null model)", "setting": "[1]; Compound 51 1 μM, Decitabine 1.5 μM, Venetoclax 0.02 μM", "value": "−0.03"}, {"measurement": "Effect size (BIGL, HSA null model)", "setting": "[1]; Compound 51 1 μM, Decitabine 3 μM, Venetoclax 0.2 μM", "value": "−0.08"}, {"measurement": "combination effect on proliferation (in words)", "setting": "[1]; pairwise matrix of decitabine and Compound 51 in the presence of Venetoclax, MV4-11, 6-day CellTiter-Glo", "value": "synergistically cytotoxic"}, {"measurement": "lifespan, Compound 51 in combination with venetoclax compared to venetoclax alone", "setting": "[2]; MOLM-13 tumor-bearing mice", "value": "statistically significant increased lifespan"}, {"measurement": "lifespan, Compound 51 in combination with venetoclax plus azacitidine compared to doublet venetoclax plus azacitidine", "setting": "[2]; MOLM-13 tumor-bearing mice", "value": "statistically significant increased lifespan"}, {"measurement": "% ILS (increased life span)", "setting": "[2]; NSG mice with established MOLM-13 tumors, 4 weeks treatment, azacitidine 2 mg/kg ip QD × 7, venetoclax 100 mg/kg po QD × 28, Compound 51 2 mg/kg po QD × 28 (Table 6)", "value": 5, "unit": "%"}]}]}
